Measurements: US7799809B2, “Carboxamide compounds and their use as calpain inhibitors” (Abbott GmbH & Co. KG, priority 2006, dated 2010)

Assays:
Type in all cases: biochemical
[1] = target: T1, cathepsin B (Homo sapiens, UniProt P07858); assay: Cathepsin B enzyme inhibition in vitro (kinetic fluorescence assay); conditions: cathepsin B isolated from human liver vs calpain I
T1 construct: cathepsin B—isolated from human liver (Calbiochem #219362); purchased Calbiochem 219362; host or cells: human liver (tissue-derived)
Method in brief: (§1)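 cat B 0.25 nM + Z-Phe-Arg-AMC 100 μM; cat L 1 nM + Z-Phe-Arg-AMC 2 μM; cat S 0.5 nM (E. coli-expressed) + Z-Val-Val-Arg-AMC 20 μM. 50 mM MES pH 6.0, 2.5 mM L-Cys, RT. Ex 390/em 460, kinetic; Ki app = Cheng-Prusoff from IC50, mean of 2–4 curves.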

[2] = target: T2, cathepsin K (Homo sapiens, UniProt P43235); assay: Cathepsin K enzyme inhibition in vitro (kinetic fluorescence assay); conditions: cathepsin K activated from recombinant human procathepsin K vs calpain I
T2 construct: purchased Calbiochem 342001; host or cells: E. coli
T2 sequence (P43235 115-329): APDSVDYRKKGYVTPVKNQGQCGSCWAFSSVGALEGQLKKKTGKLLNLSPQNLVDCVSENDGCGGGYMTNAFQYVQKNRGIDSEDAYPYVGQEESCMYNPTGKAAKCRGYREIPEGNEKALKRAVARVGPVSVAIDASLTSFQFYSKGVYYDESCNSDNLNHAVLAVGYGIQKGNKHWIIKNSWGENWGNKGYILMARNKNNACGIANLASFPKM

[3] = target: T3, cathepsin L (Homo sapiens, UniProt P07711); assay: Cathepsin L enzyme inhibition in vitro (kinetic fluorescence assay); conditions: cathepsin L isolated from human liver vs calpain I
T3 construct: cathepsin L—isolated from human liver (Calbiochem #219402); purchased Calbiochem 219402; host or cells: human liver (tissue-derived)
T3 sequence (P07711 114-333): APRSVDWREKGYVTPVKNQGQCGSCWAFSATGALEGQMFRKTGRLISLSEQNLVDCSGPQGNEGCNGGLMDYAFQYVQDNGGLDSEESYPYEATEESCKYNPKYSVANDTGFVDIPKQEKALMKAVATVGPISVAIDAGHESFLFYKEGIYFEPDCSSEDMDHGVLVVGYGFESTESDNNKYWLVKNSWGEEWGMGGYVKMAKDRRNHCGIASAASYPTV
Method in brief: as §1

[4] = target: T4, cathepsin S (Homo sapiens, UniProt P25774); assay: Cathepsin S enzyme inhibition in vitro (kinetic fluorescence assay); conditions: recombinant human cathepsin S vs calpain I
T4 construct: purchased Calbiochem 219343; host or cells: E. coli
T4 sequence (P25774 115-331): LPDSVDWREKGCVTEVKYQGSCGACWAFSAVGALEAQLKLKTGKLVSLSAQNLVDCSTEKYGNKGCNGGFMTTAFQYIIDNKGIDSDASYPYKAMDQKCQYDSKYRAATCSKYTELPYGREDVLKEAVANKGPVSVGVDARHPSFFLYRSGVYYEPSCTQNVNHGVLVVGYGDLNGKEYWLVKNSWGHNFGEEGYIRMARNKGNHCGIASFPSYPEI
Method in brief: as §1

NC(=O)C(=O)C(Cc1ccc(F)cc1)NC(=O)c1cccnc1-n1ccc(-c2ccccc2OC(F)(F)F)n1 (stereo not drawn) [Example 152, N-{3-Amino-1-[(4-fluorophenyl)methyl]-2,3-dioxopropyl}-2-(3-{2-[(trifluoromethyl)oxy]phenyl}-1H-pyrazol-1-yl)pyridine-3-carboxamide]
Sel cat. B: Ki(cathepsin B)/Ki(calpain) ratio [1]: ++ (++ means a Ki(cathepsin B)/Ki(calpain) ratio of ≧30)
Sel cat. K: Ki(cathepsin K)/Ki(calpain) ratio [2]: ++ (++ means a Ki(cathepsin K)/Ki(calpain) ratio of ≧30)
Sel cat. L: Ki(cathepsin L)/Ki(calpain) ratio [3]: ++ (++ means a Ki(cathepsin L)/Ki(calpain) ratio of ≧50)
Sel cat. S: Ki(cathepsin S)/Ki(calpain) ratio [4]: ++ (++ means a Ki(cathepsin S)/Ki(calpain) ratio of ≧100)

NC(=O)C(=O)C(Cc1ccccc1)NC(=O)c1cccnc1-n1ccc(-c2cc(F)cc(F)c2)n1 (stereo not drawn) [Example 91, N-[3-Amino-2,3-dioxo-1-(phenylmethyl)propyl]-2-[3-(3,5-difluorophenyl)-1H-pyrazol-1-yl]pyridine-3-carboxamide]
Sel cat. B: Ki(cathepsin B)/Ki(calpain) ratio [1]: ++ (++ means a Ki(cathepsin B)/Ki(calpain) ratio of ≧30)
Sel cat. K: Ki(cathepsin K)/Ki(calpain) ratio [2]: + (+ means 10≦Ki(cathepsin K)/Ki(calpain)<30)
Sel cat. L: Ki(cathepsin L)/Ki(calpain) ratio [3]: ++ (++ means a Ki(cathepsin L)/Ki(calpain) ratio of ≧50)
Sel cat. S: Ki(cathepsin S)/Ki(calpain) ratio [4]: ++ (++ means a Ki(cathepsin S)/Ki(calpain) ratio of ≧100)

NC(=O)C(=O)C(Cc1ccccc1)NC(=O)c1cccnc1-n1ccc(-c2cc(C(F)(F)F)ccc2CN2CCOCC2)n1 (stereo not drawn) [Example 163, N-[3-Amino-2,3-dioxo-1-(phenylmethyl)propyl]-2-{3-[2-(morpholin-4-ylmethyl)-5-(trifluoromethyl)phenyl]-1H-pyrazol-1-yl}pyridine-3-carboxamide]
Sel cat. B: Ki(cathepsin B)/Ki(calpain) ratio [1]: + (+ means 10≦Ki(cathepsin B)/Ki(calpain)<30)
Sel cat. K: Ki(cathepsin K)/Ki(calpain) ratio [2]: + (+ means 10≦Ki(cathepsin K)/Ki(calpain)<30)
Sel cat. L: Ki(cathepsin L)/Ki(calpain) ratio [3]: + (+ means 30≦Ki(cathepsin L)/Ki(calpain)<50)
Sel cat. S: Ki(cathepsin S)/Ki(calpain) ratio [4]: ++ (++ means a Ki(cathepsin S)/Ki(calpain) ratio of ≧100)

COc1ccc(CC(NC(=O)c2cccnc2-n2ccc(-c3ccc(F)cc3)n2)C(=O)C(N)=O)cc1 (stereo not drawn) [Example 81, N-[3-Amino-1-(4-methoxybenzyl)-2,3-dioxopropyl]-2-[3-(4-fluorophenyl)-1H-pyrazol-1-yl]nicotinamide]
Sel cat. B: Ki(cathepsin B)/Ki(calpain) ratio [1]: + (+ means 10≦Ki(cathepsin B)/Ki(calpain)<30)
Sel cat. K: Ki(cathepsin K)/Ki(calpain) ratio [2]: + (+ means 10≦Ki(cathepsin K)/Ki(calpain)<30)
Sel cat. L: Ki(cathepsin L)/Ki(calpain) ratio [3]: ++ (++ means a Ki(cathepsin L)/Ki(calpain) ratio of ≧50)
Sel cat. S: Ki(cathepsin S)/Ki(calpain) ratio [4]: ++ (++ means a Ki(cathepsin S)/Ki(calpain) ratio of ≧100)

NC(=O)C(=O)C(Cc1ccccc1)NC(=O)c1cccnc1-n1ccc(-c2c(Cl)cccc2Cl)n1 (stereo not drawn) [Example 95, N-[3-Amino-2,3-dioxo-1-(phenylmethyl)propyl]-2-[3-(2,6-dichlorophenyl)-1H-pyrazol-1-yl]pyridine-3-carboxamide]
Sel cat. B: Ki(cathepsin B)/Ki(calpain) ratio [1]: ++ (++ means a Ki(cathepsin B)/Ki(calpain) ratio of ≧30)
Sel cat. K: Ki(cathepsin K)/Ki(calpain) ratio [2]: ++ (++ means a Ki(cathepsin K)/Ki(calpain) ratio of ≧30)
Sel cat. L: Ki(cathepsin L)/Ki(calpain) ratio [3]: ++ (++ means a Ki(cathepsin L)/Ki(calpain) ratio of ≧50)
Sel cat. S: Ki(cathepsin S)/Ki(calpain) ratio [4]: ++ (++ means a Ki(cathepsin S)/Ki(calpain) ratio of ≧100)

COc1ccc(CC(NC(=O)c2cccnc2-n2ccc(-c3ccccc3)n2)C(=O)C(N)=O)cc1 (stereo not drawn) [Example 80, N-[3-Amino-1-(4-methoxybenzyl)-2,3-dioxopropyl]-2-(3-phenyl-1H-pyrazol-1-yl)nicotinamide]
Sel cat. B: Ki(cathepsin B)/Ki(calpain) ratio [1]: ++ (++ means a Ki(cathepsin B)/Ki(calpain) ratio of ≧30)
Sel cat. K: Ki(cathepsin K)/Ki(calpain) ratio [2]: + (+ means 10≦Ki(cathepsin K)/Ki(calpain)<30)
Sel cat. L: Ki(cathepsin L)/Ki(calpain) ratio [3]: ++ (++ means a Ki(cathepsin L)/Ki(calpain) ratio of ≧50)
Sel cat. S: Ki(cathepsin S)/Ki(calpain) ratio [4]: ++ (++ means a Ki(cathepsin S)/Ki(calpain) ratio of ≧100)
